Experimental data taken from US20080271210A1, “Oryza Sativa Lectin-Like Receptor Kinase 1 (Oslrk1), a Gene Involved in Plant Development” (Temasek Life Sciences Laboratory National University of …, priority 2004, published 2008).

What was measured:
Assay type in all cases: in vivo, Oryza sativa
[1] = system: Oslrk10; assay: RT-PCR of Oslrks in treated 2 week-old seedlings; conditions: treated vs control
Protocol: (§1) RT-PCRs were carried out on RNA samples isolated from 2 week-old seedlings treated with various sugar (FIG. 13), hormone (FIG. 14), and abiotic stresses (FIG. 15) using primers designated to either 3′ or 5′ Untranslated Regions (UTRs) of the 15 Oslrks found in Table 2. For each Oslrk two lanes in the gel are found, the first lane is the control and the second one treatment samples.
(§2) Table 3 provides a summary of all the above referenced data on the Oslrks, showing the RT-PCR results of various treatments, including sugar, hormone and abiotic stress and northern blot results on various tissues of rice plant grown in normal conditions, and the ESTs, or cDNAs availability in the database. In the table, “I” represents induced expression and “R” represents repressed expression.

[2] = system: Oslrk11; assay: RT-PCR of Oslrks in treated 2 week-old seedlings; conditions: treated vs control
Protocol: as §1, §2

[3] = system: Oslrk2; assay: RT-PCR of Oslrks in treated 2 week-old seedlings; conditions: treated vs control
Protocol: as §1, §2

[4] = system: Oslrk14; assay: RT-PCR of Oslrks in treated 2 week-old seedlings; conditions: treated vs control
Protocol: as §1, §2

[5] = system: Oslrk8; assay: RT-PCR of Oslrks in treated 2 week-old seedlings; conditions: treated vs control
Protocol: as §1, §2

[6] = system: Oslrk6; assay: RT-PCR of Oslrks in treated 2 week-old seedlings; conditions: treated vs control
Protocol: as §1, §2

[7] = system: Oslrk4; assay: RT-PCR of Oslrks in treated 2 week-old seedlings; conditions: treated vs control
Protocol: as §1, §2

[8] = system: Oslrk12; assay: RT-PCR of Oslrks in treated 2 week-old seedlings; conditions: treated vs control
Protocol: as §1, §2

[9] = system: Oslrk5; assay: RT-PCR of Oslrks in treated 2 week-old seedlings; conditions: treated vs control
Protocol: as §1, §2

[10] = system: Oslrk1; assay: RT-PCR of Oslrks in treated 2 week-old seedlings; conditions: treated vs control
Protocol: as §1, §2

[11] = system: Oslrk1 gene; assay: Northern-blot of Oslrk1 transcript in WT seedlings treated with hormones and SA; conditions: 100 uM, 24 hours, WT seedlings
Excerpt: Differential Regulation of Oslrk1 Gene Expression by Hormones. Receptor-like kinases were postulated to be involved in signal transduction events as they perceive a signal via a ligand-binding extracellular domain and transmit it through the serine/threonine kinase domain into the cytosol (Shiu and Bleecker, 2001). In order to know possible factors influencing the Oslrk1 gene regulation, we analyzed promoter of the Oslrk1 (1.5 kb) for the presence of cis-acting elements using the program PlantCARE (Lescot et al., 2002). Three TGAGC motifs observed in MeJA inducible genes were found in promoter of the Oslrk1 at the positions −186, −657 and −1190. Apart from these, three GA3 inducible motifs (P-box-CCTTxt) −101, −206 and −740 bp upstream of the Oslrk1 ORF were located. In addition, five salicylic acid inducible motifs (TCA-elementcAGAAa/ga) at the positions of −321, −601, −604, −855 and −1135 were detected. The presence of MeJA, GA and SA responsive cis-elements in the Oslrk1 promoter indicated possible regulatory roles of these factors. The promoter analysis led us to study the effect of different hormones and compounds on the Oslrk1 transcription. The WT seeds were germinated for […] then seedlings were transferred to the medium containing one of the following chemicals: […], MeJA, GA3 or ABA at concentration 100 uM and SA (5 mM) for 24 hours (Materials and Methods). The total RNA isolated from the untreated and treated seedlings were used in Northern-blot hybridization using 3′ UTR of the Oslrk1 gene as a probe. The treatment with GA3 and SA repressed the Oslrk1 gene expression (FIG. 8A) by 2.5 and 3.3 times respectively. […] In order to confirm the level of induction of the Oslrk1 gene by MeJA over time, in another series of experiments, a time course was performed after hormone treatment. Seven day old seedlings were sprayed with 100 uM of MeJA solution and they were harvested in 1, 2, 4, 6, 8, and 12 hours.
RNA Isolation and Northern-blot Analysis. RNA was isolated from different organs of rice plant at different developmental stages (roots of 10-14 days old seedlings and 2 months old plants, 10-14 days old seedlings, young and mature leaves, panicles at the flowering stage and calli) using a RNeasy Plant mini kit (Qiagen,). The RNA (10 ug) was fractionated on a 1.2% denaturating formaldehyde agarose gel and transferred onto a Hybond-N^+ membrane (Amersham). The bolts were hybridized with dogoxigenin (DIG)-labeled probes in DIG Easy Hyb solution (Roche) at 50° C. After hybridization, membranes were washed twice with 2×SSC and 0.1% SDS for 15 min, then twice with 0.5×SSC and 0.1% SDS for 15 min at 68° C. Detection was carried out according to manufacturer using DIG Wash and Block Buffer set and chemiluminescent substrate CDP Star™ (Roche). DIG-labelled probe corresponded to 3′UTR and lectin domain of Oslrk1 was used. For the control of RNA quantity, DIG-probe corresponding to rice Actin1 gene was synthesized using the following primers: […]
(§3) The RT-PCRs and Northern blots were repeated at least thrice and similar results were obtained. The quantification of the intensity of the hybridization signals was performed using Quantity ONE 4.5.0 software in Gel doc XR documentation system (Bio-Rad Laboratories, Inc., USA). The level of actual expression was calculated as a ratio of intensity of specific signal (Oslrk1 3′UTR probe) to the intensity of signal of positive control (rice Act1).
Treatment of WT Seedlings with Hormones and Sugars. Two week old WT seedlings were transferred to MS medium containing 100 μM of different hormones, such as Indole 3-Acetic Acid (IAA), Abscisic acid (ABA), Methyl Jasmonate (MeJA), or Gibbrellic Acid (GA3) and 5 mM of Salicylic Acid (SA), and were grown for 24 hours under normal day/light conditions. Total RNA was extracted from root of the seedlings and whole seedlings. […]

[12] = system: Oslrk1 gene; assay: Northern-blot of Oslrk1 transcript in WT seedlings treated with sugars; conditions: sugars 175 mM, 48 hours, Mannitol as osmotic control
Protocol: Lectins are known as carbohydrate-binding proteins that specifically recognize diverse sugar structures (Vijayan and Chandra, 1999). […] Five different sugars: glucose (Glu), sucrose (Suc), fructose (Fm), Gal and Man were used for this study along with Mannitol as an osmotic control (Methods). Northern-blot hybridizations were carried out on the total RNA isolated from treated seedlings.
RNA Isolation and Northern-blot Analysis. RNA was isolated from different organs of rice plant at different developmental stages (roots of 10-14 days old seedlings and 2 months old plants, 10-14 days old seedlings, young and mature leaves, panicles at the flowering stage and calli) using a RNeasy Plant mini kit (Qiagen,). […] For the control of RNA quantity, DIG-probe corresponding to rice Actin1 gene was synthesized using the following primers: […]
as §3, with “Act1). […]” for “Act1).”

[13] = system: Oslrk1 mutant seeds and seedlings; assay: Germination and growth of Oslrk1 mutant seeds in galactose/mannose containing media
Excerpt: (§4) The altered expression of the Oslrk1 by different sugars described above led us to study the response of the mutant to these monosaccharides and sucrose. The WT and the mutant seeds were germinated and grown in Gal, Man, Glu, Fm along with Suc at different concentrations (ranging from 0.1% to 1%) and Suc alone containing medium as a control. The following parameters were taken into account during observation: the shoot length, the number and the length of adventitious roots and the germination rate. […] Out of these three sugars tested, Man was selected as an example as its inhibitory effect was similar in seeds and seedlings of WT and mutant as shown in FIGS. 10A and B. The seed germination was severely affected by Man.
(§5) At 1.0% of the Gal, the shoot length decreased by half in the mutant, whereas only by 15% in the WT seedlings. […] Apart from this, the germination rate of the WT seeds dropped to 85% whereas in the mutant it dropped to 30%.
(§6) Germination of WT and mutant seeds in galactose/mannose containing media. WT and mutant seeds were germinated separately on MS medium containing 0.8% agar and 1% sucrose. In addition, D(+)galactose/D(+/−)mannose was added in different concentrations (0.1, 0.2, 0.5, and 1.0%) along with a control (MS with 1% of sucrose). At 14 days after germination, the observations for adventitious root number and length (cm), shoot length (cm) and germination rate (%) were recorded.

[14] = system: Oslrk9; assay: RT-PCR of Oslrks in treated 2 week-old seedlings; conditions: treated vs control
Protocol: as §1, §2

[15] = system: WT seeds and seedlings; assay: Germination and growth of WT seeds in galactose/mannose containing media
Excerpt: as §4, §5, §6

[16] = system: Oslrk15; assay: RT-PCR of Oslrks in treated 2 week-old seedlings; conditions: treated vs control
Protocol: as §1, §2

| Structure (SMILES) | Oslrk10 expression by RT-PCR, Rt [1] | Oslrk11 expression by RT-PCR, Sh [2] | Oslrk2 expression by RT-PCR, Rt [3] | Oslrk2 expression by RT-PCR, Sh [3] | Oslrk14 expression by RT-PCR, Sh [4] | Oslrk8 expression by RT-PCR, Sh [5] | Oslrk4 expression by RT-PCR, Rt [7] | Oslrk4 expression by RT-PCR, Sh [7] | Oslrk5 expression by RT-PCR, Rt [9] | Oslrk5 expression by RT-PCR, Sh [9] | effect on Oslrk1 transcription [11] | further results |
| --- | --- | --- | --- | --- | --- | --- | --- | --- | --- | --- | --- | --- |
| CC1=CC(=O)CC(C)(C)[C@@]1(O)/C=C/C(C)=C\C(=O)O [ABA, Abscisic acid] | R | I | I | I | I | I | I | I | I | I | no significant effect | Oslrk6 expression by RT-PCR, Sh [6]: R; Oslrk12 expression by RT-PCR, Sh [8]: I; Oslrk1 expression by RT-PCR, Sh [10]: R |
| O=C[C@H](O)[C@@H](O)[C@@H](O)[C@H](O)CO [Gal, galactose] | – | R | I | R | I | I | – | I | I | I | – | Oslrk1 expression in response to sugars [12]: Repression; length of adventitious roots ([13]; Oslrk1 mutant, 1.0% Gal): severe reduction; number of the adventitious roots reduced by ([13]; Oslrk1 mutant, 1.0% Gal): 85%; shoot length decreased by ([13]; Oslrk1 mutant, 1.0% Gal): half; germination rate ([13]; Oslrk1 mutant, Gal (1.0%)): 30%; behavior of the mutant compared with the WT upon treatment ([13]; sugar 0.1% to 1% along with Suc): differential response; Oslrk10 expression by RT-PCR, Sh ([1]; Sh): I; Oslrk11 expression by RT-PCR, Rt ([2]; Rt): I; Oslrk9 expression by RT-PCR, Sh [14]: I; length of adventitious roots ([15]; 1.0% Gal): reduced; number of the adventitious roots ([15]; 1.0% Gal): more or less same; shoot length decreased by ([15]; 1.0% Gal): 15%; germination rate ([15]; Gal (1.0%)): 85% |
| O=C(O)Cc1c[nH]c2ccccc12 [IAA, Indole 3-Acetic Acid] | I | – | – | – | – | – | I | – | I | – | no significant effect | Oslrk8 expression by RT-PCR, Rt ([5]; Rt): I; Oslrk15 expression by RT-PCR, Rt [16]: I |
